How the values were obtained:
[1] = target: T1, recombinant human mGluR4a receptors (Homo sapiens, UniProt Q14833); test: mGluR4 assay on HEK-expressing human mGluR4: fluorescent cell based Ca2+ mobilization assay (FLIPR); conditions: HEK-293 cells expressing hmGluR4; potentiation of EC25 glutamate; mean of at least three independent experiments in duplicate; read-out: Ca^2+ Flux (mean EC50)
T1 construct: expressed in transfected cells
Excerpt: mGluR4 Assay on HEK-Expressing Human mGluR4
The compounds of the present invention are positive allosteric modulators of mGluR4 receptor. Their activity was examined on recombinant human mGluR4a receptors by detecting changes in intracellular Ca^2+ concentration, using the fluorescent Ca^2+-sensitive dye Fluo4-(AM) and a Fluorometric Imaging Plate Reader (FLIPR, Molecular Devices, Sunnyvale, Calif.).
The cDNA encoding the human metabotropic glutamate receptor (hmGluR4), (accession number NM_000841.1, NCBI Nucleotide database browser), was subcloned into an expression vector containing also the hygromycin resistance gene. In parallel, the cDNA encoding a G protein allowing redirection of the activation signal to intracellular calcium flux was subcloned into a different expression vector containing also the puromycin resistance gene. Transfection of both these vectors into HEK293 cells with PolyFect reagent (Qiagen) according to supplier's protocol, and hygromycin and puromycin treatment allowed selection of antibiotic resistant cells which had integrated stably one or more copies of the plasmids. Positive cellular clones expressing hmGluR4 were identified in a functional assay measuring changes in calcium fluxes in response to glutamate or selective known mGluR4 orthosteric agonists and antagonists.
HEK-293 cells expressing hmGluR4 were maintained in media containing DMEM, dialyzed Fetal Calf Serum (10%), Glutamax™ (2 mM), Penicillin (100 units/mL), Streptomycin (100 μg/mL), Geneticin (100 μg/mL) and Hygromycin-B (40 μg/mL) and puromycin (1 μg/mL) at 37° C./5% CO2.
Human mGluR4 HEK-293 cells were plated out 24 hours prior to FLIPR^384 assay in black-walled, clear-bottomed, poly-L-ornithine-coated 384-well plates at a density of 25,000 cells/well in a glutamine/glutamate free DMEM medium containing foetal bovine serum (10%), penicillin (100 units/mL) and streptomycin (100 μg/mL) at 37° C./5% CO2.
On the day of the assay, the medium was aspirated and the cells were loaded with a 3 μM solution of Fluo-4-AM (LuBioScience, Lucerne, Switzerland) in 0.03% pluronic acid. After 1 hour at 37° C./5% CO2, the non incorporated dye was removed by washing cell plate with the assay buffer and the cells were left in the dark at room temperature for […] before testing. All assays were performed in a pH 7.4 buffered-solution containing 20 mM HEPES, 143 mM NaCl, 6 mM KCl, 1 mM MgSO4, 1 mM CaCl2, 0.125 mM sulfapyrazone and 0.1% glucose.
After 10 s of basal fluorescence recording, various concentrations of the compounds of the invention were added to the cells. Changes in fluorescence levels were first monitored for 180 s in order to detect any agonist activity of the compounds. Then the cells were stimulated by an EC25 glutamate concentration for an additional 110 s in order to measure enhancing activities of the compounds of the invention. EC25 glutamate concentration is the concentration giving 25% of the maximal glutamate response.
The concentration-response curves of representative compounds of the present invention were generated using the Prism GraphPad software (Graph Pad Inc, San Diego, USA). The curves were fitted to a four-parameter logistic equation: (Y=Bottom+(Top-Bottom)/(1+10^((Log EC50−X)*Hill Slope) allowing the determination of EC50 values.
The Table 4 below represents the mean EC50 obtained from at least three independent experiments of selected molecules performed in duplicate.

T1 sequence (Q14833 33-912): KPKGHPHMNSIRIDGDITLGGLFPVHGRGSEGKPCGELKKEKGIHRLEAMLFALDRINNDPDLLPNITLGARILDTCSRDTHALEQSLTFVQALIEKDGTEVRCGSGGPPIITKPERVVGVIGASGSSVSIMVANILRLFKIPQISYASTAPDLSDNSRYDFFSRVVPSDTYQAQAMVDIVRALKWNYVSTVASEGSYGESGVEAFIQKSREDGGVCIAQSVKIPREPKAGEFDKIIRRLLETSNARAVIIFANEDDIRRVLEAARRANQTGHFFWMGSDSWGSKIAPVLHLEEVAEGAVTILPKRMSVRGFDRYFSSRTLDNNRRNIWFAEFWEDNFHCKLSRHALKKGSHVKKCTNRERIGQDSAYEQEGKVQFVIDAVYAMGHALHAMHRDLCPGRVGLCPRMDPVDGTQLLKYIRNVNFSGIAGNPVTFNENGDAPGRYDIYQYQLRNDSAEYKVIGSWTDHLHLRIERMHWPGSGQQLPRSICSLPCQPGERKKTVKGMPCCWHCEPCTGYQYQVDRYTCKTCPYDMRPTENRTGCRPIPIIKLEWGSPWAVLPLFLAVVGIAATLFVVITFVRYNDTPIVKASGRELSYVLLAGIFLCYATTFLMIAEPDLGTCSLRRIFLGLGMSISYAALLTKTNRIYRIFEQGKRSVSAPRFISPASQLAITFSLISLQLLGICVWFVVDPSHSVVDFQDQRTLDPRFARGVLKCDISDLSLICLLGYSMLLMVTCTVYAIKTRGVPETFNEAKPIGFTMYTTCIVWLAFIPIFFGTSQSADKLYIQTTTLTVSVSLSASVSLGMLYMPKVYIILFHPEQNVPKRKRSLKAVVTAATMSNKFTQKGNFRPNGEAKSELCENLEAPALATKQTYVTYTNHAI

Compound | EC50 [1] [nM] | melting point [°C]
Cc1cccc(Oc2nc(-c3cn[nH]c3)cs2)n1 [Compound 1-10, 2-(6-Methylpyridin-2-yloxy)-4-(1H-pyrazol-4-yl)thiazole] | < 100 | 176 to 178
N#Cc1sc(Oc2cccc(Cl)n2)nc1-c1cn[nH]c1 [Compound 1-21, 2-(6-Chloropyridin-2-yloxy)-4-(1H-pyrazol-4-yl)thiazole-5-carbonitrile] | < 100 | 
FC(F)(F)c1n[nH]cc1-c1nsc(Oc2ccccn2)n1 [Compound 1-2, 5-(Pyridin-2-yloxy)-3-(3-(trifluoromethyl)-1H-pyrazol-4-yl)-1,2,4-thiadiazole] | < 100 | 245 to 247
CC(=O)c1n[nH]cc1-c1csc(Oc2cccc(C)n2)n1 [Compound 1-9, 1-(4-(2-(6-Methylpyridin-2-yloxy)thiazol-4-yl)-1H-pyrazol-3-yl)ethanone] |  | 194 to 195
Cc1n[nH]cc1-c1csc(Oc2ncccc2F)n1 [Compound 1-8, 2-(3-Fluoropyridin-2-yloxy)-4-(3-methyl-1H-pyrazol-4-yl)thiazole] |  | 160
Fc1ccc(Oc2nc(-c3cn[nH]c3)cs2)nc1 [Compound 1-18, 2-(5-Fluoropyridin-2-yloxy)-4-(1H-pyrazol-4-yl)thiazole] | 100 to 1000 | 
Fc1cccc(F)c1Oc1nc(-c2cn[nH]c2)cs1 [Compound 1-5, 2-(2,6-Difluorophenoxy)-4-(1H-pyrazol-4-yl)thiazole] | 100 to 1000 | 131 to 135
Cc1n[nH]cc1-c1nsc(Oc2ccccc2)n1 [Compound 1-1, 3-(3-Methyl-1H-pyrazol-4-yl)-5-phenoxy-1,2,4-thiadiazole] | 1000 to 10000 | 165 to 166
Cc1n[nH]cc1-c1csc(Oc2cccc(Cl)n2)n1 [Compound 1-7, 2-(6-Chloropyridin-2-yloxy)-4-(3-methyl-1H-pyrazol-4-yl)thiazole] | < 100 | 158 to 161
c1ccc(Oc2nc(-c3cn[nH]c3)cs2)nc1 [Compound 1-6, 4-(1H-Pyrazol-4-yl)-2-(pyridin-2-yloxy)thiazole] |  | 151 to 152
Cc1cccc(Oc2nc(-c3c[nH]nc3C)cs2)n1 [Compound 1-11, 4-(3-Methyl-1H-pyrazol-4-yl)-2-(6-methylpyridin-2-yloxy)thiazole] |  | 138 to 139
Cc1[nH]ncc1-c1csc(Oc2ncccn2)n1 [Compound 1-4, 4-(5-Methyl-1H-pyrazol-4-yl)-2-(pyrimidin-2-yloxy)thiazole] |  | 177

— patent US8513252B2, “Pyrazole derivatives and their use as positive allosteric modulators of metabotropic glutamate receptors” (Addex Pharma S.A., priority 2009, dated 2013)
